The values below come from patent publication US20240368135A1 (VERTEX PHARMACEUTICALS INCORPORATED, priority 2021, published 2024).

As usually defined, the IC50 is the concentration that inhibits the measured activity by half.

Sequence of human NaV 1.8 (Q9Y5Y9 126-399 limits assumed): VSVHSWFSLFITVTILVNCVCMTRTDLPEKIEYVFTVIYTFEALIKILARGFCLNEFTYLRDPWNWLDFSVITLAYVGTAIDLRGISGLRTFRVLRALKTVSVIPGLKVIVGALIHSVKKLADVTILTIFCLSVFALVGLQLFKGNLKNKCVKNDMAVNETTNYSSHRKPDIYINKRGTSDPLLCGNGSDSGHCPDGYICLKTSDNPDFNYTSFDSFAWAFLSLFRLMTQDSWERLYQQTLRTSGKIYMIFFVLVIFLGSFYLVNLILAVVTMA
Sequence of human NaV 1.8 (Q9Y5Y9 660-890 limits assumed): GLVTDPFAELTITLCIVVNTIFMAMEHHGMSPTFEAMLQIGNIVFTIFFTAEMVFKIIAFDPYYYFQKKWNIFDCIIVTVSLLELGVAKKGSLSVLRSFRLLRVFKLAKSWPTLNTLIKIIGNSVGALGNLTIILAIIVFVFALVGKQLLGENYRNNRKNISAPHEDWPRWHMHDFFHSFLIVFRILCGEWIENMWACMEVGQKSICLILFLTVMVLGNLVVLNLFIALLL
Sequence of human NaV 1.8 (Q9Y5Y9 1148-1722 limits assumed): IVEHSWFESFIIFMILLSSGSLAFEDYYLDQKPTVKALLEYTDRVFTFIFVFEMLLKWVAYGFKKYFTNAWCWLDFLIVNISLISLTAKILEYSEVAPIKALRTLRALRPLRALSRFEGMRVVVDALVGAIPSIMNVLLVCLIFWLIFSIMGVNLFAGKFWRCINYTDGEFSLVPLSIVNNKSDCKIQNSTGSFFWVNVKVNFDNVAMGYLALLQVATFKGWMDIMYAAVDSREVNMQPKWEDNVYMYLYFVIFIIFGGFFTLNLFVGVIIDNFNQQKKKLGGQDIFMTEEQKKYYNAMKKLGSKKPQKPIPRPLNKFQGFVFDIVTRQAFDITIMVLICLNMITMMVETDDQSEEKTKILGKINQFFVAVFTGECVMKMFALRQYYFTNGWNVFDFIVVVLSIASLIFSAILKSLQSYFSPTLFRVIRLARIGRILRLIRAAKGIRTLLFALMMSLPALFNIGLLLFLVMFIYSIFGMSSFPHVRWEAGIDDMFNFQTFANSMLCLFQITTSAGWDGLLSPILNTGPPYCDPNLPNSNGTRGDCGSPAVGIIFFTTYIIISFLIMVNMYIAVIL

The first test concerns the target human NaV 1.8 (Homo sapiens, UniProt Q9Y5Y9). The experiment in a line: E-VIPR assay detecting and measuring NaV inhibition properties. It counts as cell-based. The following applies: HEK cells expressing truncated human NaV 1.8; in the presence of human serum (compound numbers followed by *); read-out: IC50 in the E-VIPR Assay, performed in the presence of human serum. The method, boiled down: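 HEK cells expressing truncated, fully active human NaV1.8, with KIR2.1 BacMam co-transduction, were loaded with CC2-DMPE/DiSBAC6(3) voltage-sensing dyes for 20 min at room temperature. Compounds were tested in 11-point 3-fold dilutions (300 nM top final), optionally with 25% human serum, under electrical stimulation with FRET read-out.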
On to `CCOc1c(C2CC(C)(C(F)(F)F)OC2C(=O)Nc2ccn3c(OC)nnc3c2)ccc(F)c1F` (stereo not shown) [Compound 708], for which the IC50 is 100 to 1000 nM.

Consider `C[C@H]1[C@@H](c2ccc(F)c(F)c2OC(F)F)[C@H](C(=O)Nc2cc(S(C)(=O)=O)c[n+]([O-])c2)O[C@@]1(C)C(F)(F)F` (single isomer, unassigned) [Compound 88], for which the IC50 fell in the range of 100 to 1000 nM.

Still in this test, the particulars now being: HEK cells expressing truncated human NaV 1.8; no human serum; read-out: IC50 in the E-VIPR Assay.
As to `COc1c([C@H]2[C@H](C(=O)NCc3nc(C(C)C)no3)O[C@@](C)(C(F)(F)F)[C@H]2C)ccc(F)c1F` [Compound 289, (2R,3S,4S,5R)-3-(3,4-difluoro-2-methoxyphenyl)-N-((3-isopropyl-1,2,4-oxadiazol-5-yl)methyl)-4,5-dimethyl-5-(trifluoromethyl)tetrahydrofuran-2-carboxamide], the IC50 is at least 1000 nM.

For the molecule `COCCOc1c([C@H]2[C@H](C(=O)Nc3cnn(C(C)(C)CO)c3)O[C@@](C)(C(F)(F)F)[C@H]2C)ccc(F)c1F` [Compound 582, (2R,3S,4S,5R)-3-(3,4-difluoro-2-(2-methoxyethoxy)phenyl)-N-(1-(1-hydroxy-2-methylpropan-2-yl)-1H-pyrazol-4-yl)-4,5-dimethyl-5-(trifluoromethyl)tetrahydrofuran-2-carboxamide], the IC50 fell in the range of 100 to 1000 nM.

`C[C@H]1[C@@H](c2ccc(F)c(F)c2OCCO)[C@H](C(=O)Nc2ccc(C(F)F)nc2)O[C@@]1(C)C(F)(F)F` [Compound 571, (2R,3S,4S,5R)-3-(3,4-difluoro-2-(2-hydroxyethoxy)phenyl)-N-(6-(difluoromethyl)pyridin-3-yl)-4,5-dimethyl-5-(trifluoromethyl)tetrahydrofuran-2-carboxamide]: the concentration for half-maximal inhibition (IC50) was 10 to 100 nM.

Take `CNC(=O)c1ccc(NC(=O)[C@H]2O[C@](C)(C(F)(F)F)[C@H](C)[C@@H]2c2ccc(F)c(C(F)F)c2OC)cn1` (stereo in doubt) [Compound 171, rel-5-((2S,3R,4R,5S)-3-(3-(difluoromethyl)-4-fluoro-2-methoxyphenyl)-4,5-dimethyl-5-(trifluoromethyl)tetrahydrofuran-2-carboxamido)-N-methylpicolinamide]: the concentration for half-maximal inhibition (IC50) lay within 10 to 100 nM.

In the case of `COc1c([C@H]2[C@H](C(=O)Nc3ccc(-n4ccc(C)n4)nc3)O[C@@](C)(C(F)(F)F)[C@H]2C)ccc(F)c1F` [Compound 395, (2R,3S,4S,5R)-3-(3,4-difluoro-2-methoxyphenyl)-4,5-dimethyl-N-(6-(3-methyl-1H-pyrazol-1-yl)pyridin-3-yl)-5-(trifluoromethyl)-tetrahydrofuran-2-carboxamide], the IC50 was in the range of 10 to 100 nM.

For the molecule `COc1c([C@H]2[C@H](C(=O)Nc3ccc4nc(CO)cn4c3)O[C@@](C)(C(F)(F)F)[C@H]2C)ccc(F)c1F` [Compound 264, (2R,3S,4S,5R)-3-(3,4-difluoro-2-methoxyphenyl)-N-(2-(hydroxymethyl)imidazo[1,2-a]pyridin-6-yl)-4,5-dimethyl-5-(trifluoromethyl)tetrahydrofuran-2-carboxamide], the IC50 lay within 10 to 100 nM.

Regarding `COc1c([C@H]2[C@H](C(=O)Nc3cnc4c(c3)CCC4O)O[C@@](C)(C(F)(F)F)[C@H]2C)ccc(F)c1F` (single isomer, unassigned) [Compound 17], the IC50 was 10 to 100 nM.

With `Cc1c(F)ccc([C@H]2[C@H](C(=O)Nc3ccn(C)c(=O)c3)O[C@@](C)(C(F)(F)F)[C@H]2C)c1OC(F)F` (stereo in doubt) [Compound 100, rel-(2R,3S,4S,5R)-3-(2-(difluoromethoxy)-4-fluoro-3-methylphenyl)-4,5-dimethyl-N-(1-methyl-2-oxo-1,2-dihydropyridin-4-yl)-5-(trifluoromethyl)tetrahydrofuran-2-carboxamide], the IC50 is below 10 nM.

As to `COC[C@@H](C)Oc1c([C@H]2[C@H](C(=O)Nc3ccnc(CO)c3)O[C@@](C)(C(F)(F)F)[C@H]2C)ccc(F)c1F` [Compound 646, (2R,3S,4S,5R)-3-(3,4-difluoro-2-(((R)-1-methoxypropan-2-yl)oxy)phenyl)-N-(2-(hydroxymethyl)pyridin-4-yl)-4,5-dimethyl-5-(trifluoromethyl)tetrahydrofuran-2-carboxamide], the half-inhibitory concentration (IC50) is below 10 nM.

`Cc1oncc1NC(=O)[C@@H]1O[C@@](C)(C(F)(F)F)[C@@H](C)[C@H]1c1ccc(F)c(F)c1OCCO` [Compound 559, (2R,3S,4S,5R)-3-(3,4-difluoro-2-(2-hydroxyethoxy)phenyl)-4,5-dimethyl-N-(5-methylisoxazol-4-yl)-5-(trifluoromethyl)tetrahydrofuran-2-carboxamide]: the IC50 fell in the range of 10 to 100 nM.

For `COCC(O)c1cc(NC(=O)[C@@H]2O[C@@](C)(C(F)(F)F)[C@@H](C)[C@H]2c2ccc(F)c(F)c2OCCN2CCOCC2)ccn1` (single isomer, unassigned) [Compound 595], the half-maximal inhibitory concentration (IC50) was 10 to 100 nM.

With `COc1c([C@H]2[C@H](C(=O)Nc3ccnc(S(N)(=O)=O)c3)O[C@@](C)(C(F)(F)F)[C@H]2C)ccc(F)c1F` [Compound 188, (2R,3S,4S,5R)-3-(3,4-difluoro-2-methoxyphenyl)-4,5-dimethyl-N-(2-sulfamoylpyridin-4-yl)-5-(trifluoromethyl)tetrahydrofuran-2-carboxamide], the half-inhibitory concentration (IC50) was below 10 nM.

For `COc1c([C@H]2[C@H](C(=O)Nc3ccnc(CC(C)(C)O)c3)O[C@@](C)(C(F)(F)F)[C@H]2C)ccc(F)c1F` [Compound 405, (2R,3S,4S,5R)-3-(3,4-difluoro-2-methoxy-phenyl)-N-[2-(2-hydroxy-2-methyl-propyl)-4-pyridyl]-4,5-dimethyl-5-(trifluoromethyl)tetrahydrofuran-2-carboxamide], the IC50 fell in the range of 10 to 100 nM.

In the case of `COCC(c1ccc(NC(=O)[C@@H]2O[C@@](C)(C(F)(F)F)[C@@H](C)[C@H]2c2ccc(F)c(F)c2OC)cn1)N1CCC1` (single isomer, unassigned) [Compound 407, rel-(2R*,3S*,4S*,5R*)-N-(6-(1-(azetidin-1-yl)-2-methoxyethyl)-pyridin-3-yl)-3-(3,4-difluoro-2-methoxyphenyl)-4,5-dimethyl-5-(trifluoromethyl)-tetrahydrofuran-2-carboxamide], the IC50 was at least 1000 nM.

Take `CCOc1c([C@H]2[C@H](C(=O)Nc3cncc(S(C)(=O)=O)c3)O[C@@](C)(C(F)(F)F)[C@H]2C)ccc(F)c1F` (stereo in doubt) [Compound 107, rel-(2R,3S,4S,5R)-3-(2-ethoxy-3,4-difluorophenyl)-4,5-dimethyl-N-(5-(methylsulfonyl)pyridin-3-yl)-5-(trifluoromethyl)tetrahydrofuran-2-carboxamide]: the 50% inhibitory concentration (IC50) was below 10 nM.

Regarding `C[C@H]1[C@@H](c2ccc(F)c(F)c2OCCN2CC(F)C2)[C@H](C(=O)Nc2ccc3nncn3c2)O[C@@]1(C)C(F)(F)F` [Compound 635], the IC50 is 10 to 100 nM.

For the molecule `COc1c(C2C(C(=O)Nc3ccnc(S(C)(=O)=O)c3)OC(C)(C(F)(F)F)C2C)ccc(F)c1F` (single isomer, unassigned) [Compound 50, 3-(3,4-difluoro-2-methoxy-phenyl)-4,5-dimethyl-N-(2-methylsulfonyl-4-pyridyl)-5-(trifluoromethyl)tetrahydrofuran-2-carboxamide], the IC50 was below 10 nM.

Regarding `COc1c([C@H]2[C@H](C(=O)Nc3ccnc(N(C)CCO)c3)O[C@@](C)(C(F)(F)F)[C@H]2C)ccc(F)c1F` [Compound 521, (2R,3S,4S,5R)-3-(3,4-difluoro-2-methoxy-phenyl)-N-[2-[2-hydroxyethyl(methyl)amino]-4-pyridyl]-4,5-dimethyl-5-(trifluoromethyl)tetrahydrofuran-2-carboxamide], the IC50 was 10 to 100 nM.

For `COc1c([C@H]2[C@H](C(=O)Nc3ccnc(CCO)c3)O[C@@](C)(C(F)(F)F)[C@H]2C)ccc(F)c1F` [Compound 385, (2R,3S,4S,5R)-3-(3,4-difluoro-2-methoxyphenyl)-N-(2-(2-hydroxyethyl)pyridin-4-yl)-4,5-dimethyl-5-(trifluoromethyl)tetrahydrofuran-2-carboxamide], the IC50 is below 10 nM.

For the molecule `COc1c([C@H]2[C@H](C(=O)Nc3cc(C4CN(C)CCO4)ncc3F)O[C@@](C)(C(F)(F)F)[C@H]2C)ccc(F)c1F` (single isomer, unassigned) [Compound 367, rel-(2R*,3S*,4S*,5R*)-3-(3,4-difluoro-2-methoxyphenyl)-N-(5-fluoro-2-(4-methylmorpholin-2-yl)pyridin-4-yl)-4,5-dimethyl-5-(trifluoromethyl)tetrahydrofuran-2-carboxamide], the IC50 fell in the range of 10 to 100 nM.

For the molecule `COc1c(C2C(C(=O)Nc3ccnc(C(O)CO)c3)OC(C)(C(F)(F)F)C2C)ccc(F)c1F` (single isomer, unassigned) [Compound 46, 3-(3,4-difluoro-2-methoxy-phenyl)-N-[2-(1,2-dihydroxyethyl)-4-pyridyl]-4,5-dimethyl-5-(trifluoromethyl)tetrahydrofuran-2-carboxamide], the IC50 is below 10 nM.

On to `COc1c([C@H]2[C@H](C(=O)Nc3ccnc(C(O)CF)c3)O[C@@](C)(C(F)(F)F)[C@H]2C)ccc(F)c1F` (single isomer, unassigned) [Compound 253, rel-(2R*,3S*,4S*,5R*)-3-(3,4-difluoro-2-methoxyphenyl)-N-(2-(2-fluoro-1-hydroxyethyl)pyridin-4-yl)-4,5-dimethyl-5-(trifluoromethyl)tetrahydrofuran-2-carboxamide], for which the IC50 is below 10 nM.

Turning to `CNC(COC)c1ccc(NC(=O)[C@@H]2O[C@@](C)(C(F)(F)F)[C@@H](C)[C@H]2c2ccc(F)c(F)c2OC)cn1` (single isomer, unassigned) [Compound 414, rel-(2R*,3S*,4S*,5R*)-3-(3,4-difluoro-2-methoxyphenyl)-N-(6-(2-methoxy-1-(methylamino)ethyl)-pyridin-3-yl)-4,5-dimethyl-5-(trifluoromethyl)-tetrahydrofuran-2-carboxamide], the IC50 fell in the range of 100 to 1000 nM.
